Data reported in US20250361230A1, “LATS Inhibitors and Uses Thereof” (The USA, as Represented by the Secretary, Dept. of Heath …, priority 2022, published 2025).
Like-named read-outs stand apart in the source and are kept apart here.

Experiments:
Assay type in all cases: biochemical
[1] = molecular target: AKT (Homo sapiens, UniProt P31749); experiment: RBC HotSpot kinase assay (33P-ATP, P81 filter-binding), AKT; settings: read-out: AKT IC50
In short: (§1)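 Substrate in fresh buffer receives cofactors, then kinase, then compound in DMSO for a 20 min room-temperature preincubation. Reactions start with 33P-ATP and run 2 h; phosphorylation is read by P81 filter binding, and IC50 comes from a 10-point curve.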

[2] = molecular target: T1, LATS2 (Homo sapiens, UniProt Q9NRM7); experiment: RBC HotSpot kinase assay (33P-ATP, P81 filter-binding), LATS2; settings: read-out: LATS2 IC50
T1 sequence (Q9NRM7 1-1088): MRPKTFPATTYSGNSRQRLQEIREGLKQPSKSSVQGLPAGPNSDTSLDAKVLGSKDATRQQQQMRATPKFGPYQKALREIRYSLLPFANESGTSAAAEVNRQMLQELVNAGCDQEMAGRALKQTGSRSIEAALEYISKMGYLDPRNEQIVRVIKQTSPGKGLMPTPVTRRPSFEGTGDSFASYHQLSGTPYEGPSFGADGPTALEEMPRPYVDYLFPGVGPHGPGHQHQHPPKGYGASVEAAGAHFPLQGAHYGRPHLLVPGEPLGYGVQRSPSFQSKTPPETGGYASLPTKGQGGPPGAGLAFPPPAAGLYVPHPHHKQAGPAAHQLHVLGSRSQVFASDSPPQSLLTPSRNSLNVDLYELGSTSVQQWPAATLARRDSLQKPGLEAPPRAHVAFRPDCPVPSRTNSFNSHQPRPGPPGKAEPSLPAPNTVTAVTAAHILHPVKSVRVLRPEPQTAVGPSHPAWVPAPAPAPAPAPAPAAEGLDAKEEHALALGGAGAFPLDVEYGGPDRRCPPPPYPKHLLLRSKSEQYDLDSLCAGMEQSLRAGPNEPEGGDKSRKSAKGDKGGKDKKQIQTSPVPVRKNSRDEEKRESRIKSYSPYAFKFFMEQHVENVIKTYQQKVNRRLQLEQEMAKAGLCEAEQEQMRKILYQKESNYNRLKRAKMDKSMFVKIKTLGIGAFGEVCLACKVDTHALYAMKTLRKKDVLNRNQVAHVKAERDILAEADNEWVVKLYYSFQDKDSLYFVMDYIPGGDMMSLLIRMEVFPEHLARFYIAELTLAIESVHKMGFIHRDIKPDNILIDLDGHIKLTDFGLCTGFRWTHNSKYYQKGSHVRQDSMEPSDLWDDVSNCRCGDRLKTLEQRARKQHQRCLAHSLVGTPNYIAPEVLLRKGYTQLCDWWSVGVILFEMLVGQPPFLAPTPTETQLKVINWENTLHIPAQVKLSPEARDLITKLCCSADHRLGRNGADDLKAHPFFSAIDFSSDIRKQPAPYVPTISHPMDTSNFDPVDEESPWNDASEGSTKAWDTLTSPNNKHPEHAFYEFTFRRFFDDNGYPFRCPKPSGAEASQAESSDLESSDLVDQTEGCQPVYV
In short: as §1

[3] = molecular target: T2, LATS1 (Homo sapiens, UniProt O95835); experiment: RBC HotSpot kinase assay (33P-ATP, P81 filter-binding), LATS1; settings: read-out: LATS1 IC50
T2 sequence (O95835 1-1130): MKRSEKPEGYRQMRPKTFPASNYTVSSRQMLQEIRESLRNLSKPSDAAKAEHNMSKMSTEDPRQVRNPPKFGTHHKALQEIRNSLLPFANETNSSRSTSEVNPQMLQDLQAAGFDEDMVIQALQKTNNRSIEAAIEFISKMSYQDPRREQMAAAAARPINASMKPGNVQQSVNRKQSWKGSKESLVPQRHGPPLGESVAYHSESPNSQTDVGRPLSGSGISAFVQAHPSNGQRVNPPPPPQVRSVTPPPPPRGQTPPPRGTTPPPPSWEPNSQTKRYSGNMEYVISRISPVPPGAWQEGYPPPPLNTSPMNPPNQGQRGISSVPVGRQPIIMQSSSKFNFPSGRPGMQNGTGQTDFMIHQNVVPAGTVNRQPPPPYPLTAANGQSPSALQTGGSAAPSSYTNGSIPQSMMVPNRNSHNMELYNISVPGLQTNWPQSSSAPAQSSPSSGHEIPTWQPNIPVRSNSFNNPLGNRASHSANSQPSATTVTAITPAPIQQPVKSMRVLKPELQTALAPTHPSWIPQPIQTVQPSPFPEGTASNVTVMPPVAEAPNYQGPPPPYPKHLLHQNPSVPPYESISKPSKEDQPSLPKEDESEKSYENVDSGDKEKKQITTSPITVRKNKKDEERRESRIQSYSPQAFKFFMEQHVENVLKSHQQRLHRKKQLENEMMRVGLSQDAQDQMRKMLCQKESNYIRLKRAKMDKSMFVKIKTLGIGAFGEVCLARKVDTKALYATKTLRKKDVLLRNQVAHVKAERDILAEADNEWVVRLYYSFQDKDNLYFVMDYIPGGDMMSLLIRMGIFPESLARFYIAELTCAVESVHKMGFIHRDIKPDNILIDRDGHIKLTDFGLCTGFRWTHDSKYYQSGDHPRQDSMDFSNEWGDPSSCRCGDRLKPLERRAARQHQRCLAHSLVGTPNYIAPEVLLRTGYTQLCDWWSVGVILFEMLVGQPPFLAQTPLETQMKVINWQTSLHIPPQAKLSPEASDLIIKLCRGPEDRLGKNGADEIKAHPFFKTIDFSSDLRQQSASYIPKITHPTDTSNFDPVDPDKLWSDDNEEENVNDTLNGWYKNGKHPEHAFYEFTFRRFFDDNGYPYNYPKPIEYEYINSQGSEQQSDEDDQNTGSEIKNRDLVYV
In short: as §1

[4] = Table 28, biochemical kinase assay
[5] = Table 32, biochemical kinase assay

Sequence of AKT (P31749 whole entry): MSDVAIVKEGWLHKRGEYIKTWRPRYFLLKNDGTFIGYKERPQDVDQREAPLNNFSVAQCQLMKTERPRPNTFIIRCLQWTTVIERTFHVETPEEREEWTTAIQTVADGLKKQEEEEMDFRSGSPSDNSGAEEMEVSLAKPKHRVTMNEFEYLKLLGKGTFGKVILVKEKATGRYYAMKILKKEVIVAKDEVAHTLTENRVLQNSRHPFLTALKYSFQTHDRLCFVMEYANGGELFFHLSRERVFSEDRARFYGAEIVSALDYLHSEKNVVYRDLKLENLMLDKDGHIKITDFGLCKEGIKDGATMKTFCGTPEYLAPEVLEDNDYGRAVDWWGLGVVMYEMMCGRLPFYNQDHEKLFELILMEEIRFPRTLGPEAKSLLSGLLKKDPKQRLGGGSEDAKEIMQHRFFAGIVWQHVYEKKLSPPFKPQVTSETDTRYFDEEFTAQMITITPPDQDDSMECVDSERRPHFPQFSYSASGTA

| SMILES | IC50 [1, 4] [nM] | IC50 [2, 4] [nM] | IC50 [3, 4] [nM] | IC50 [1, 5] [nM] | IC50 [2, 5] [nM] | IC50 [3, 5] [nM] |
| --- | --- | --- | --- | --- | --- | --- |
| COc1ccc(-c2c[nH]c3nccc(-c4ccc(CN)cc4)c23)cc1 [Compound 239, (4-(3-(4-methoxyphenyl)-1H-pyrrolo[2,3-b]pyridin-4-yl)phenyl) methanamine] | 1310 | 26 | 67 |  |  |  |
| CC(=O)N1C[C@@H](C)[C@](O)(c2c(C)cc(-c3ccnc4[nH]cc(F)c34)cc2F)[C@@H](C)C1 [Compound 95, 1-((3S,5R)-4-(2-fluoro-4-(3-fluoro-1H-pyrrolo[2,3-b]pyridin-4-yl)-6-methylphenyl)-4-hydroxy-3,5-dimethylpiperidin-1-yl)ethan-1-one] | 2620 | 4.8 | 6.9 |  |  |  |
| CN1CCC(O)(c2ccc(-c3ccnc4[nH]ccc34)cc2)CC1 [Compound 132, 4-(4-(1H-pyrrolo[2,3-b]pyridin-4-yl)phenyl)-1-methylpiperidin-4-ol] | 490 | 5.7 | 2.9 |  |  |  |
| Fc1cnc2[nH]ccc2c1-c1ccc(C2CCNCC2)cc1 [Compound 186, 5-fluoro-4-(4-(piperidin-4-yl)phenyl)-1H-pyrrolo[2,3-b]pyridine] | 2050 | 68 | 36 |  |  |  |
| Fc1ccc(CNCc2ccc(-c3ccnc4[nH]ccc34)cc2Cl)cc1 [Compound 282, N-(2-chloro-4-(1H-pyrrolo[2,3-b]pyridin-4-yl)benzyl)-1-(4-fluorophenyl) methanamine] | 3800 | 59.2 | 31.4 |  |  |  |

Next, values leading:

| IC50 [1, 4] [nM] | IC50 [2, 4] [nM] | IC50 [3, 4] [nM] | IC50 [1, 5] [nM] | IC50 [2, 5] [nM] | IC50 [3, 5] [nM] | SMILES |
| --- | --- | --- | --- | --- | --- | --- |
| 659 | 4.7 | 5.8 |  |  |  | C[C@@H]1CN(C(=O)[C@H]2CCCN2)C[C@H](C)C1(O)c1c(F)cc(-c2ccnc3[nH]cc(F)c23)cc1F (stereo partly drawn) [Compound 85, 4-(4-((3S,5R)-1-(D-prolyl)-4-hydroxy-3,5-dimethylpiperidin-4-yl)-3,5-difluorophenyl)-3-fluoro-1H-pyrrolo[2,3-b]pyridine] |
| 14 | 0.9 | 1.8 |  |  |  | OC1(c2ccc(-c3ccnc4[nH]cc(Br)c34)cc2)C[C@H]2CC[C@@H](C1)N2 (stereo partly drawn) [Compound 118, (1R,5S)-3-(4-(3-bromo-1H-pyrrolo[2,3-b]pyridin-4-yl)phenyl)-8-azabicyclo[3.2.1]octan-3-ol] |
| 12 | 20 | 34 |  |  |  | CC1(c2ccc(-c3ccnc4[nH]cc(F)c34)cc2Cl)CCNCC1 [Compound 200, 4-(3-chloro-4-(4-methylpiperidin-4-yl)phenyl)-3-fluoro-1H-pyrrolo[2,3-b]pyridine] |
|  |  |  | 5.6 | 2.4 | 3.7 | O=C(NCC(O)(c1ccc(Cl)cc1)c1ccc(-c2ccnc3[nH]ccc23)cc1)[C@H]1CCCN1 (stereo partly drawn) [Compound 1024, (2R)-N-(2-(4-(1H-pyrrolo[2,3-b]pyridin-4-yl)phenyl)-2-(4-chlorophenyl)-2-hydroxyethyl)pyrrolidine-2-carboxamide] |
| 1470 | 10.3 | 21.6 |  |  |  | C[C@@H]1CN(C(=O)[C@@H]2CCCN2)C[C@H](C)C1(O)c1c(F)cc(-c2ccnc3[nH]cc(F)c23)cc1F (stereo partly drawn) [Compound 84, 4-(4-((3S,5R)-1-(L-prolyl)-4-hydroxy-3,5-dimethylpiperidin-4-yl)-3,5-difluorophenyl)-3-fluoro-1H-pyrrolo[2,3-b]pyridine] |
| 1120 | 121 | 139 |  |  |  | CC(C)(C)Nc1cc(-c2ccnc3[nH]cc(F)c23)ccc1C1CCNCC1 [Compound 156, N-(tert-butyl)-5-(3-fluoro-1H-pyrrolo[2,3-b]pyridin-4-yl)-2-(piperidin-4-yl)aniline] |
| 2710 | 117 | 66.4 |  |  |  | OC1(c2c(F)cc(-c3ccnc4[nH]cc(F)c34)cc2F)CC2(CN(C3COC3)C2)C1 [Compound 138, 6-(2,6-difluoro-4-(3-fluoro-1H-pyrrolo[2,3-b]pyridin-4-yl)phenyl)-2-(oxetan-3-yl)-2-azaspiro[3.3]heptan-6-ol] |
